Experimental data taken from patent US20240188613A1, “SWEETENER COMPOSITIONS COMPRISING MOGROSIDES AND USES THEREOF” (Firmenich Incorporated, priority 2021, published 2024).

Experiments:
Format in all cases: in vivo, human
[1] = Sensory testing for apple drink (panel of volunteers); details: for Bitterness / Delayed Sweetness / Global Flavor Intensity / Sweetness / Thickness/Body: in-mouth, normalized to Reb M
Experimental: (§1) A panel of volunteers evaluated isomogroside IVE for in-mouth attributes (sweetness, delayed sweetness, sourness, bitterness, global flavor intensity, thickness/body, and astringence) and aftertaste (AT) attribtues (lingering sweetness, overall off-taste intensity, licorice off-tast, bitterness off-taste, and mouth coating) on a 10-point scale. Two replicate sessions were conducted, with a 20 minute break between sessions. There was a 90 second delay between samples within a session. Panelists evaluated all samples in a first session and evaluated the samples again a second time in a second session. Control samples of Rebaudioside M (Reb M) were evaluated during all sessions as a control. Mogroside V was also evaluated and sensory data for mogroside V is provided.
(§2) Data analysis was performed using 2-way analysis of variance (ANOVA) with interaction using Tukey's HSD test. The data was normalized for each attribute according to average scores for Reb M.

[2] = Sensory testing for lemon-lime carbonated soft drink (panel of volunteers)
Experimental: as §1, §2
A panel of volunteers evaluated the isomogroside IVE-containing lemon-lime carbonated soft drink for in-mouth attributes and aftertaste attributes according to the methods described in Example 1 above.

[3] = Sensory testing for sparkling orange beverage (panel of volunteers)
Experimental: as §1, §2
A panel of volunteers evaluated a sparkling orange beverage containing isomogroside IVE for in-mouth attributes and aftertaste attributes according to the methods described in Example 1 above.

[4] = Sensory testing for vanilla milk (panel of volunteers); details: for Licorice Aftertaste / Lingering Sweetness / Mouth Coating / Overall Off-Taste: aftertaste
Experimental: as §1, §2
A panel of volunteers evaluated vanilla milk containing isomogroside IVE for in-mouth attributes and aftertaste attributes according to the methods described in Example 1 above.

[5] = Additional sensory testing for lemon-flavored (lemon-lime) beverage (panel of flavorists); details: 600 ppm mogrosides, 0 to 10 scale, letter in parentheses = Duncan's test group
Experimental: A panel of flavorists at three locations evaluated lemon-lime beverage various mogrosides at a concentration of 600 ppm mogrosides for in-mouth attributes (peak sweetness, upfront sweetness, bitterness, and mouthfeel/thickness) and aftertaste attributes (sweet taste linger), on a 0 to 10 scale. The in-mouth attributes were evaluated while holding the sample in the mouth, while the aftertaste attributes were evaluated after expectoration.

[6] = Additional sensory testing for vanilla milk (panel of flavorists); details: 400 ppm mogrosides, 0 to 10 scale, letter in parentheses = Duncan's test group
Experimental: A panel of flavorists at three locations evaluated vanilla milk containing various mogrosides at a concentration of 400 ppm mogrosides for in-mouth attributes (peak sweetness, upfront sweetness, bitterness, and mouthfeel/thickness) and aftertaste attributes (sweet taste linger), on a 0 to 10 scale. The in-mouth attributes were evaluated while holding the sample in the mouth, while the aftertaste attributes were evaluated after expectoration. The data was analyzed using Duncan's new multiple range test and the scores are provided in the data below in parentheses.

[7] = Expert panelists' comparison of mogrosides with Stevia; details: "Examples 4 and 5", in words
[8] = 250 ppm (mogroside V 250 mg [sic]), aftertaste, 10-point scale
[9] = 250 ppm (mogroside V 250 mg [sic]), 10-point scale
[10] = 500 ppm (mogroside V 500 mg [sic]), aftertaste, 10-point scale
[11] = 500 ppm (mogroside V 500 mg [sic]), 10-point scale
[12] = same concentration of Reb M, in words
[13] = 600 ppm (mogroside V 600 mg [sic]), aftertaste, 10-point scale, normalized
[14] = 600 ppm (mogroside V 600 mg [sic]), in-mouth, 10-point scale, normalized
[15] = 250 ppm (mogroside V 250 mg [sic]), aftertaste, 10-point scale, normalized
[16] = 250 ppm (mogroside V 250 mg [sic]), in-mouth, 10-point scale, normalized
[17] = 200 ppm (mogroside V 200 mg [sic]), 10-point scale, normalized
[18] = 200 ppm (mogroside V 200 mg [sic]), in-mouth, 10-point scale, normalized
[19] = 400 ppm (mogroside V 400 mg [sic]), 10-point scale, normalized
[20] = 400 ppm (mogroside V 400 mg [sic]), in-mouth, 10-point scale, normalized

C[C@H](CC[C@@H](O[C@@H]1O[C@H](CO)[C@@H](O)[C@H](O)[C@H]1O[C@@H]1O[C@H](CO)[C@@H](O)[C@H](O)[C@H]1O)C(C)(C)O)[C@@]1(C)CC[C@@]2(C)[C@@H]3CC=C4[C@@H](CC[C@H](O[C@@H]5O[C@H](CO)[C@@H](O[C@@H]6O[C@H](CO)[C@@H](O)[C@H](O)[C@H]6O)[C@H](O)[C@H]5O)C4(C)C)[C@]3(C)[C@H](O)C[C@@]21C [isomogroside IVE]
Bitterness Aftertaste [1, 8]: 1.5 | Licorice Aftertaste [1, 8]: 2.4 | Lingering Sweetness [1, 8]: 3.0 | Overall Off-Taste [1, 8]: 3.2 | Bitterness [1, 9]: 1.4 | Delayed Sweetness [1, 9]: 2.1 | Global Flavor Intensity [1, 9]: 3.3 | Sweetness [1, 9]: 3.9 | Thickness/Body [1, 9]: 1.6 | Licorice Aftertaste [1, 10]: 2.2 | Lingering Sweetness [1, 10]: 3.4 | Mouth Coating [1, 10]: 2.0 | Overall Off-Taste [1, 10]: 3.1 | Bitterness [1, 11]: 1.9 | Delayed Sweetness [1, 11]: 2.6 | Global Flavor Intensity [1, 11]: 3.5 | Sweetness [1, 11]: 4.5 | Thickness/Body [1, 11]: 1.6 | Overall off-taste compared with mogroside V ([1]; aftertaste, in words): lower overall off-taste | Lingering sweetness aftertaste compared with Reb M ([1]; at both 250 ppm and 500 ppm, in words): significantly improved | Bitterness compared with mogroside V ([1]; in words): lower bitterness | Global flavor intensity compared with mogroside V ([1]; in words): higher | Sweetness compared with mogroside V ([1]; in words): higher sweetness | Thickness/body compared with mogroside V ([1]; in words): higher thickness/body | Global flavor intensity compared with Reb M [1, 12]: lower global flavor intensity | Sweetness compared with Reb M [1, 12]: somewhat less sweet | Bitterness Aftertaste [2, 13]: 1.8 | Licorice Aftertaste [2, 13]: 2.9 | Lingering Sweetness [2, 13]: 4.2 | Overall Off-Taste [2, 13]: 3.8 | Bitterness [2, 14]: 2.2 | Delayed Sweetness [2, 14]: 3.5 | Global Flavor Intensity [2, 14]: 5.0 | Sweetness [2, 14]: 5.0 | Sweetness compared with Reb M ([2]; 600 ppm, in words): overall lower sweetness | Global flavor intensity compared with mogroside V ([2]; in words): higher global flavor intensity | Sweetness compared with mogroside V ([2]; in words): comparable sweetness | Licorice Aftertaste [3, 15]: 2.1 | Lingering Sweetness [3, 15]: 3.9 | Mouth Coating [3, 15]: 1.9 | Overall Off-Taste [3, 15]: 3.3 | Delayed Sweetness [3, 16]: 3.5 | Sweetness [3, 16]: 4.9 | Delayed sweetness compared with Reb M ([3]; 250 ppm, in words): slightly increased delayed sweetness | Sweetness compared with Reb M ([3]; 250 ppm, in words): overall lower sweetness | Licorice Aftertaste [4, 17]: 0.8 | Lingering Sweetness [4, 17]: 2.6 | Mouth Coating [4, 17]: 2.9 | Overall Off-Taste [4, 17]: 2.1 | Astringence [4, 18]: 0.5 | Delayed Sweetness [4, 18]: 1.7 | Fattiness [4, 18]: 2.9 | Sourness [4, 18]: 0.5 | Sweetness [4, 18]: 5.1 | Licorice Aftertaste [4, 19]: 1.4 | Lingering Sweetness [4, 19]: 3.7 | Mouth Coating [4, 19]: 0.9 | Overall Off-Taste [4, 19]: 2.0 | Astringence [4, 20]: 0.7 | Bitterness [4, 20]: 1.0 | Delayed Sweetness [4, 20]: 2.5 | Fattiness [4, 20]: 3.9 | Global Flavor Intensity [4, 20]: 4.6 | Sourness [4, 20]: 0.8 | Sweetness [4, 20]: 6.8 | Bitterness compared with mogroside V ([4]; at 400 ppm, in words): lower bitterness | Fattiness compared with mogroside V ([4]; at 400 ppm, in words): higher | Global flavor intensity compared with mogroside V ([4]; at 400 ppm, in words): higher | Sweetness compared with Reb M ([4]; at both 200 ppm and 400 ppm, in words): increased sweetness | Sweetness compared with mogroside V ([4]; in words): higher sweetness | Sweet Linger ([5]; aftertaste after expectoration): 3.429 (c) | Bitterness ([5]; in-mouth): 1.857 (a) | Mouthfeel/Thickness ([5]; in-mouth): 2.714 (b) | Peak Sweetness ([5]; in-mouth): 4.857 (c) | Upfront Sweetness ([5]; in-mouth): 3.571 (b) | Sweet Linger ([6]; aftertaste after expectoration): 4.563 (b) | Bitterness ([6]; in-mouth): 1.313 (ab) | Mouthfeel/Thickness ([6]; in-mouth): 4.125 (b) | Peak Sweetness ([6]; in-mouth): 5.938 (c) | Upfront Sweetness ([6]; in-mouth): 5.125 (b) | Bitter aftertaste compared with Stevia [7]: lower bitter aftertaste | Licorice aftertaste compared with Stevia [7]: lower licorice aftertaste | Mouthfeel compared with Stevia [7]: better mouthfeel
